These results are taken from patent EP0429999A1, “Novel cephalosporins, process for their preparation and their use as medicaments” (BAYER AG, priority 1989, dated 1991).

Assay in all cases: MIC (MHK), agar dilution on Iso-Sensitest agar, multipoint inoculator
What all share (type): cell-based
A general note: In agar dilution, organisms are placed on agar that contains the substance at set levels.

One assay concerns E. coli A 261. The following applies: Escherichia coli, A261; strain E. coli A 261; 37°C, read after ca. 20 h, ca. 10^4 colony-forming particles per inoculation point. The text has this:
(§1) Die minimalen Hemmkonzentrationen (MHK) wurden per Reihenverdünnungsverfahren auf Iso-Sensitest Agar (Oxoid) bestimmt. Für jede Prüfsubstanz wurde eine Reihe von Agarplatten hergestellt, die bei jeweils doppelter Verdünnung abfallende Konzentrationen des Wirkstoffes enthielten. Die Agarplatten wurden mit einem MultipointInokulator (Denley) beimpft. Zum Beimpfen wurden Übernachtkulturen der Erreger verwandt, die zuvor so verdünnt wurden, daß jeder Impfpunkt ca. 10^4 koloniebildende Partikel enthielt. Die beimpften Agarplatten wurden bei 37°C bebrütet, und das Keimwachstum wurde nach ca. 20 Stunden abgelesen. Der MHK-Wert (µg/ml) gibt die niedrigste Wirkstoffkonzentration an, bei der mit bloßem Auge kein Keimwachstum zu erkennen war.
(§2) MHK-Werte: Agarverdünnung/Multipoint

Another assay concerns Enterococc. 27185. Conditions: strain Enterococc. 27185; 37°C, read after ca. 20 h, ca. 10^4 colony-forming particles per inoculation point.
Source text: as §1, §2

A further assay deals with Klebs. 6097. The following applies: strain Klebs. 6097; 37°C, read after ca. 20 h, ca. 10^4 colony-forming particles per inoculation point.
Source text: as §1, §2

The subject of a further assay is Staph. aur. 25455. Conditions: strain Staph. aur. 25455; 37°C, read after ca. 20 h, ca. 10^4 colony-forming particles per inoculation point.
Source text: as §1, §2

The subject of another assay is Staph. epi. 25185. The following applies: strain Staph. epi. 25185; 37°C, read after ca. 20 h, ca. 10^4 colony-forming particles per inoculation point.
Source text: as §1, §2

The test system of another assay is Strept. faec. 27101. The following applies: strain Strept. faec. 27101; 37°C, read after ca. 20 h, ca. 10^4 colony-forming particles per inoculation point.
Source text: as §1, §2

The structures appear in SMILES notation. ≈ marks a conversion by molar mass, not a printed value.

One may read the MIC as the least concentration at which growth counts as inhibited. High values mean a less susceptible organism, low ones a more susceptible organism. With `C/C=C\C1=C(C(=O)O)N2C(=O)[C@@H](NC(=O)[C@H](N)c3cc4sc(N)nc4s3)[C@H]2SC1` [Beispiel 13a], the MIC was 4 µg/mL (≈ 8.86 µM) in the assay on E. coli A 261; 2 µg/mL (≈ 4.43 µM) with Enterococc. 27185; 2 µg/mL (≈ 4.43 µM) against Klebs. 6097; at most 0.25 µg/mL in the assay with Staph. aur. 25455; at most 0.25 µg/mL against Staph. epi. 25185; 16 µg/mL (≈ 35.4 µM) in the assay on Strept. faec. 27101.
